Where two headings read alike, the source gives them in different places.
Columns and labels:
[1] = target: [^3 H]Spiroperidol Binding (Rattus norvegicus, UniProt P61169); assay: Inhibition of [^3 H]Spiroperidol Binding, receptor assay
[2] = test system: Brain Dopamine Synthesis in Rats; assay: % Reversal of Brain Dopamine Synthesis in Rats; type: in vivo; conditions: Rattus norvegicus, IP
[3] = test system: Locomotor Activity in Mice; assay: Inhibition of Locomotor Activity in Mice; type: in vivo; conditions: Mus musculus, IP

[^3 H]Spiroperidol Binding, sequence (P61169 whole entry): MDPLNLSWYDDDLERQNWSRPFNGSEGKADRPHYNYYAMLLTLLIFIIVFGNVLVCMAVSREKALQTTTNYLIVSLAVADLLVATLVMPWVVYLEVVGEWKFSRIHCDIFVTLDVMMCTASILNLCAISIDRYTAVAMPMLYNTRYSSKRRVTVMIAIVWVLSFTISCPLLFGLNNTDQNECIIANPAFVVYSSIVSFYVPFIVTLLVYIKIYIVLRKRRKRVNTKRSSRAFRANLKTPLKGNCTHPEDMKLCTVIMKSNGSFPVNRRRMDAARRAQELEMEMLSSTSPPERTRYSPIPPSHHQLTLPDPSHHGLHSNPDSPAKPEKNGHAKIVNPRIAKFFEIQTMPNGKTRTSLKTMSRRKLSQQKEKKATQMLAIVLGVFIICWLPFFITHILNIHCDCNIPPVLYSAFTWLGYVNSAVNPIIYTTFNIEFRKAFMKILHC

Compound	IC50 [1]	inhibition in vivo at 10 mg/kg [2]	ED50 [3]	IC50 ([1]; read-out: Inhibition of [^3 H]Spiroperidol Binding IC50, [^3 H]spiroperidol radioligand)
C(#Cc1cnc2ccccc2c1)CCN1CC=C(c2ccccc2)CC1 [Example 1, 3-[4-(3,6-Dihydro-4-phenyl-1(2H)-pyridinyl)-1-butynyl]quinoline]	0.041 µM	28%	–	–
C(#Cc1cncc2ccccc12)CCN1CC=C(c2ccccc2)CC1 [Example 2, 4-[4-(3,6-Dihydro-4-phenyl-1(2H)-pyridinyl)-1-butynyl]isoquinoline]	0.101 µM	32%	2.1 mg/kg	–
C(#Cc1cccnc1)CCN1CC=C(c2cccs2)CC1 [Example 3, 3-[4-[3,6-Dihydro-4-(2-thienyl)-1(2H)-pyridinyl]-1-butynyl]pyridine]	0.354 µM	53%	0.54 mg/kg	–
C(#Cc1cccnc1)CCN1CC=C(c2ccccc2)CC1 [Example 4, 3-[4-(3,6-Dihydro-4-phenyl-1(2H)-pyridinyl)-1-butynyl]pyridine]	0.05 µM	79%	0.07 mg/kg	–
C(#Cc1cnc2ccccc2c1)CCCN1CC=C(c2ccccc2)CC1 [Example 6, 3-[5-(3,6-Dihydro-4-phenyl-1(2H)-pyridinyl)-1-pentynyl]quinoline]	–	–	3.6 mg/kg	–
C(#Cc1cccnc1)CCCN1CC=C(c2ccccc2)CC1 [Example 7, 3-[5-(3,6-Dihydro-4-phenyl-1(2H)-pyridinyl)-1-pentynyl]pyridine]	0.0772 µM	48%	0.72 mg/kg	–
C(#Cc1cccnc1)CCCN1CC=C(c2cccs2)CC1 [Example 8, 3-[5-[3,6-Dihydro-4-(2-thienyl)-1(2H)-pyridinyl]-1-pentynyl]pyridine]	0.209 µM	–	2.7 mg/kg	–
O=[N+]([O-])c1ccc(C#CCCN2CC=C(c3ccccc3)CC2)nc1 [Example 9, 1,2,3,6-Tetrahydro-1-[4-(5-nitro-2-pyridinyl)-3-butynyl]-4-phenylpyridine]	0.229 µM	–	6.9 mg/kg	–
O=[N+]([O-])c1ccc(C#CCCN2CC=C(c3ccccc3)CC2)cc1 [Example 10, 1,2,3,6-Tetrahydro-1-[4-(4-nitrophenyl)-3-butynyl]-4-phenylpyridine]	0.394 µM	42%	2.6 mg/kg	–
C(#Cc1ccncc1)CCN1CC=C(c2ccccc2)CC1 [Example 11, 4-[4-(3,6-Dihydro-4-phenyl-1(2H)-pyridinyl)-1-butynyl]pyridine]	0.0434 µM	79%	0.1 mg/kg	–
Nc1ccc(C#CCCN2CC=C(c3cccs3)CC2)nc1 [Example 12, 6-[4-[3,6-Dihydro-4-(2-thienyl)-1(2H)-pyridinyl]-1-butynyl]-3-pyridinamine]	0.321 µM	46%	0.36 mg/kg	–
CN(C)c1ccc(C#CCCN2CC=C(c3ccccc3)CC2)nc1 [Example 13, 6-[4-(3,6-Dihydro-4-phenyl-1(2H)-pyridinyl)-1-butynyl]-N,N-dimethyl-3-pyridinamine]	0.192 µM	49%	0.28 mg/kg	–
C(#Cc1ccccn1)CCN1CC=C(c2ccccc2)CC1 [Example 14, 1,2,3,6-Tetrahydro-4-phenyl-1-[4-(2-pyridinyl)-3-butynyl]pyridine]	0.189 µM	23%	2.1 mg/kg	–
C(#Cc1ccc2[nH]ccc2c1)CCN1CC=C(c2ccccc2)CC1 [Example 15, 5-[4-(3,6-Dihydro-4-phenyl-1(2H)-pyridinyl)-1-butynyl]-1H-indole]	0.078 µM	–	1 mg/kg	–
C(#Cc1cccs1)CCN1CC=C(c2ccccc2)CC1 [Example 16, 1,2,3,6-Tetrahydro-4-phenyl-1-[4-(2-thienyl)-3-butynyl]pyridine]	0.115 µM	–	7.6 mg/kg	–
Nc1ccc(C#CCCN2CC=C(c3ccc(F)cc3)CC2)cn1 [Example 17, 5-[4-[4-(4-Fluorophenyl)-3,6-dihydro-1(2H)-pyridinyl]-1-butynyl]-2-pyridinamine]	0.376 µM	40%	1.2 mg/kg	–
Nc1ccc(C#CCCN2CC=C(c3ccccc3)CC2)nc1 [Example 19, 6-[4-(3,6-Dihydro-4-phenyl-1(2H)-pyridinyl)-1-butynyl]-3-pyridinamine]	0.085 µM	59%	0.15 mg/kg	–
Nc1ccc(C#CCCN2CC=C(c3ccccc3)CC2)cc1 [Example 20, 4-[4-(3,6-Dihydro-4-phenyl-1(2H)-pyridinyl)-1-butynyl]benzenamine]	0.431 µM	51%	0.36 mg/kg	–
Nc1ccc(C#CCCN2CC=C(c3ccccc3)CC2)cn1 [Example 21, 5-[4-(3,6-Dihydro-4-phenyl-1(2H)-pyridinyl)-1-butynyl]-2-pyridinamine]	0.025 µM	65%	0.07 mg/kg	–
CC(=O)Nc1ccc(C#CCCN2CC=C(c3ccccc3)CC2)nc1 [Example 22, N-[6-[4-(3,6-Dihydro-4-phenyl-1(2H)-pyridinyl)-1-butynyl]-3-pyridinyl]acetamide]	0.07 µM	5%	0.07 mg/kg	–
O=C(Nc1ccc(C#CCCN2CC=C(c3ccccc3)CC2)nc1)c1cccs1 [Example 23, N-[6-[4-(3,6-Dihydro-4-phenyl-1(2H)-pyridinyl)-1-butynyl]-3-pyridinyl]-2-thiophenecarboxamide]	1.09 µM	0%	1.5 mg/kg	–
CC(=O)Nc1ccc(C#CCCN2CC=C(c3ccccc3)CC2)cc1 [Example 24, N-[4-[4-(3,6-Dihydro-4-phenyl-1(2H)-pyridinyl)-1-butynyl]phenyl]acetamide]	0.05 µM	–	0.23 mg/kg	–
CC(=O)Nc1ccc(C#CCCN2CC=C(c3ccccc3)CC2)cn1 [Example 25, N-[5-[4-(3,6-Dihydro-4-phenyl-1(2H)-pyridinyl)-1-butynyl]-2-pyridinyl]acetamide]	–	–	0.16 mg/kg	–
CNc1ccc(C#CCCN2CC=C(c3ccccc3)CC2)nc1 [Example 26, 6-[4-(3,6-Dihydro-4-phenyl-1(2H)-pyridinyl)-1-butynyl]-N-methyl-3-pyridinamine]	0.138 µM	0%	0.22 mg/kg	–
CNc1ccc(C#CCCN2CC=C(c3ccccc3)CC2)cc1 [Example 27, 4-[4-(3,6-Dihydro-4-phenyl-1(2H)-pyridinyl)-1-butynyl]-N-methylbenzenamine]	0.129 µM	45%	0.56 mg/kg	–
CNc1ccc(C#CCCN2CC=C(c3ccc(F)cc3)CC2)cn1 [Example 28, 5-[4-[4-(9-Fluorophenyl)-3,6-dihydro-1(2H)-pyridinyl]-1-butynyl]-N-methyl-2-pyridinamine]	–	57%	0.6 mg/kg	1.27 µM
CNc1ccc(C#CCCN2CC=C(c3ccccc3)CC2)cn1 [Example 29, 5-[4-(3,6-Dihydro-4-phenyl-1(2H)-pyridinyl)-1-butynyl]-N-methyl-2-pyridinamine]	0.077 µM	42%	6.1 mg/kg	–
CCCNc1ccc(C#CCCN2CC=C(c3ccccc3)CC2)nc1 [Example 30, 6-[4-(3,6-Dihydro-4-phenyl-1(2H)-pyridinyl)-1-butynyl]-N-propyl-3-pyridinamine]	0.248 µM	–	0.31 mg/kg	–
CS(=O)(=O)N(c1ccc(C#CCCN2CC=C(c3ccccc3)CC2)nc1)S(C)(=O)=O [Example 31, N-(Methylsulfonyl)-N-[6-[4-(3,6-dihydro-4-phenyl-1(2H)-pyridinyl)-1-butynyl]-3-pyridinyl]methanesulfonamide]	0.094 µM	0%	0.53 mg/kg	–
CS(=O)(=O)Nc1ccc(C#CCCN2CC=C(c3ccccc3)CC2)nc1 [Example 32, N-[6-[4-(3,6-Dihydro-4-phenyl-1(2H)-pyridinyl)-1-butynyl]-3-pyridinyl]methanesulfonamide]	0.064 µM	–	1.1 mg/kg	–
